Data from PMC9030254, “Target Hopping from Protein Kinases to PXR: Identification of Small-Molecule Protein Kinase Inhibitors as Selective Modulators of Pregnane X Receptor from TüKIC Library” (Cells, 2022).

Tests used:
Test in all cases: Kinase profiling
Type in all cases: biochemical
BRK = target: T1, BRK (Homo sapiens, UniProt Q13882)
T1 construct: purchased ProQinase (Freiburg, Germany)
Description: (§1) The analysis was performed by ProQinase (Freiburg, Germany).

BRSK2 = target: T2, BRSK2 (Homo sapiens, UniProt Q8IWQ3)
T2 construct: purchased ProQinase (Freiburg, Germany)
T2 sequence (Q8IWQ3 1-736): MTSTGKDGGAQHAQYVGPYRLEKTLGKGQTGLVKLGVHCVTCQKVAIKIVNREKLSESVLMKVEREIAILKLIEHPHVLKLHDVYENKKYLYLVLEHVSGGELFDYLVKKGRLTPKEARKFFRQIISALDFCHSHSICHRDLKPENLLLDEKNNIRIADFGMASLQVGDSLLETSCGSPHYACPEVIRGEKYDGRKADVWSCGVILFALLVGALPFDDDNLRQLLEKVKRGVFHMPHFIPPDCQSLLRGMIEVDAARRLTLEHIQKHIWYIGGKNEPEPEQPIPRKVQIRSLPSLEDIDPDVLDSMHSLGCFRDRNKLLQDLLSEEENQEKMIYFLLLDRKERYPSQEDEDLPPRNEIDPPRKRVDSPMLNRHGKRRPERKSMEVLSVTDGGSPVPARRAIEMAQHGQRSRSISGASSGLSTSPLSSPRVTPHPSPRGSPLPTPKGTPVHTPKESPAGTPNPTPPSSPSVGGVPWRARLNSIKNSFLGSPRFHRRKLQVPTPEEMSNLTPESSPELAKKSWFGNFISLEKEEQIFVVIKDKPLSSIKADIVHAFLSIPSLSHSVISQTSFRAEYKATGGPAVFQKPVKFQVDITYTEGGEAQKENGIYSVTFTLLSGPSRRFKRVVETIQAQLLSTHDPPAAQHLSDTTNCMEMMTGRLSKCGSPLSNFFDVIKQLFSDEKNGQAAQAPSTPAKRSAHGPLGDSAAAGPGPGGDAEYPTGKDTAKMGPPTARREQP
Description: as §1

CDK4/CycD2 = target: T3, CDK4/CycD2 (Homo sapiens, UniProt P11802)
T3 construct: purchased ProQinase (Freiburg, Germany)
Description: as §1

GSK3beta = target: T4, GSK3beta (Homo sapiens, UniProt P49841)
T4 construct: purchased ProQinase (Freiburg, Germany)
Description: as §1

MEK2 = target: T5, MEK2 (Homo sapiens, UniProt P36507)
T5 construct: purchased ProQinase (Freiburg, Germany)
Description: as §1

MELK = target: T6, MELK (Homo sapiens, UniProt Q14680)
T6 construct: purchased ProQinase (Freiburg, Germany)
Description: as §1

MKK6 SDTD = target: T7, MKK6 SDTD (Homo sapiens, UniProt P52564, S207D/T211D)
T7 construct: purchased ProQinase (Freiburg, Germany)
T7 sequence (P52564 1-334 S207D/T211D): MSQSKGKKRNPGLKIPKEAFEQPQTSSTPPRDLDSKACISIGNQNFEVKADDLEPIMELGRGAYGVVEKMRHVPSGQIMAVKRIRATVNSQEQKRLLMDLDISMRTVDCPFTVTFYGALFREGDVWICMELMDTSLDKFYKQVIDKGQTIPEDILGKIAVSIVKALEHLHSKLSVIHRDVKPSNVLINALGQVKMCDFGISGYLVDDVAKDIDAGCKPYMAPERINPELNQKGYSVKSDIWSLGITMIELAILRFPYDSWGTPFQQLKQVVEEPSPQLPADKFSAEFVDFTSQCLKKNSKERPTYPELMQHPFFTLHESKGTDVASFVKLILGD
Description: as §1

MKK7 = target: T8, MKK7 (Homo sapiens, UniProt O14733)
T8 construct: purchased ProQinase (Freiburg, Germany)
T8 sequence (O14733 1-419): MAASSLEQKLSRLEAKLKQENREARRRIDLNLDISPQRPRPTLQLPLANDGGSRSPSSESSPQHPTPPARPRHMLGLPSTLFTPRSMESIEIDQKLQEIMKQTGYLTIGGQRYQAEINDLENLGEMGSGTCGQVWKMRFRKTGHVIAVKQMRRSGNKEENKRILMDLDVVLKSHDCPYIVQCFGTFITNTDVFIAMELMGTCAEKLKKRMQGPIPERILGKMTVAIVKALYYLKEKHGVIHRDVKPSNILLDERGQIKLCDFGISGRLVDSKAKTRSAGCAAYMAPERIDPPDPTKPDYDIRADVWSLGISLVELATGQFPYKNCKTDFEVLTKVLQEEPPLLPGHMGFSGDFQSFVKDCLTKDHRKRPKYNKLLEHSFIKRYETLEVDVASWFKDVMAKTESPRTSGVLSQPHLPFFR
Description: as §1

PAK1 = target: T9, PAK1 (Homo sapiens, UniProt Q13153)
T9 construct: purchased ProQinase (Freiburg, Germany)
Description: as §1

PDGFRalpha = target: T10, PDGFRalpha (Homo sapiens, UniProt P16234)
T10 construct: purchased ProQinase (Freiburg, Germany)
Description: as §1

PKCzeta = target: T11, PKCzeta (Homo sapiens, UniProt Q05513)
T11 construct: purchased ProQinase (Freiburg, Germany)
T11 sequence (Q05513 1-592): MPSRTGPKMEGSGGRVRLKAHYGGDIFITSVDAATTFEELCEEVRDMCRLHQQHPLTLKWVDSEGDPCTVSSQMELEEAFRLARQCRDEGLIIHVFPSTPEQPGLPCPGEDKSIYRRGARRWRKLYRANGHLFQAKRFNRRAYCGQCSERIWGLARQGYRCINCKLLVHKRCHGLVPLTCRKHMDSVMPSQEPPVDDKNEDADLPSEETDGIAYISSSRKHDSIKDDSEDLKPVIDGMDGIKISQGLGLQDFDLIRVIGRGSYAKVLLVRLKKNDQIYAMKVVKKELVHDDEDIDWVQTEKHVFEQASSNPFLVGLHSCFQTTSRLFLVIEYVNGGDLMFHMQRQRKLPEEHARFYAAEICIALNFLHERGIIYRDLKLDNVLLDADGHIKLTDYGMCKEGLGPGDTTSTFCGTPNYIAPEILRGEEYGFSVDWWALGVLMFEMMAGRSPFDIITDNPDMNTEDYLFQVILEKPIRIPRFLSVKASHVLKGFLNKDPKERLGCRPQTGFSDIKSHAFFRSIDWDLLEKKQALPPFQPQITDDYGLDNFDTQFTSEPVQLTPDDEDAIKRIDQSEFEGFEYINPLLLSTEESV
Description: as §1

RPS6KA1 = target: T12, RPS6KA1 (Homo sapiens, UniProt Q15418)
T12 construct: purchased ProQinase (Freiburg, Germany)
Description: as §1

T3 sequence (P11802 whole entry): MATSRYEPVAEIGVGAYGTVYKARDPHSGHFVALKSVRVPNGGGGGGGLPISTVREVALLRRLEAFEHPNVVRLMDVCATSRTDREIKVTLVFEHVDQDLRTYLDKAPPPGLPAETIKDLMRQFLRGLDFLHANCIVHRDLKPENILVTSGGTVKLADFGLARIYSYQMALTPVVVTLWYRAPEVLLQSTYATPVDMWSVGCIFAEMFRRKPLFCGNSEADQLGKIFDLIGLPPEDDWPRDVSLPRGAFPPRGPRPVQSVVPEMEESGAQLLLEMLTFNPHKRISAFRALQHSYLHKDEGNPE
T3 sequence (P30279 whole entry partner): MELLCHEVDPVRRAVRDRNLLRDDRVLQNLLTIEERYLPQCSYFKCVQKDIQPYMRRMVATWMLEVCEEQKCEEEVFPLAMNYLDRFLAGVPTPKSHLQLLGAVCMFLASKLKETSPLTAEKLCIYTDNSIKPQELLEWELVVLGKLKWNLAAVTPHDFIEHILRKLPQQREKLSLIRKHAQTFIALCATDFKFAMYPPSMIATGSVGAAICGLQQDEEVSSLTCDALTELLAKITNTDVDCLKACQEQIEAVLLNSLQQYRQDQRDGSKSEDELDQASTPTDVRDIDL
T10 sequence (P16234 24-1089): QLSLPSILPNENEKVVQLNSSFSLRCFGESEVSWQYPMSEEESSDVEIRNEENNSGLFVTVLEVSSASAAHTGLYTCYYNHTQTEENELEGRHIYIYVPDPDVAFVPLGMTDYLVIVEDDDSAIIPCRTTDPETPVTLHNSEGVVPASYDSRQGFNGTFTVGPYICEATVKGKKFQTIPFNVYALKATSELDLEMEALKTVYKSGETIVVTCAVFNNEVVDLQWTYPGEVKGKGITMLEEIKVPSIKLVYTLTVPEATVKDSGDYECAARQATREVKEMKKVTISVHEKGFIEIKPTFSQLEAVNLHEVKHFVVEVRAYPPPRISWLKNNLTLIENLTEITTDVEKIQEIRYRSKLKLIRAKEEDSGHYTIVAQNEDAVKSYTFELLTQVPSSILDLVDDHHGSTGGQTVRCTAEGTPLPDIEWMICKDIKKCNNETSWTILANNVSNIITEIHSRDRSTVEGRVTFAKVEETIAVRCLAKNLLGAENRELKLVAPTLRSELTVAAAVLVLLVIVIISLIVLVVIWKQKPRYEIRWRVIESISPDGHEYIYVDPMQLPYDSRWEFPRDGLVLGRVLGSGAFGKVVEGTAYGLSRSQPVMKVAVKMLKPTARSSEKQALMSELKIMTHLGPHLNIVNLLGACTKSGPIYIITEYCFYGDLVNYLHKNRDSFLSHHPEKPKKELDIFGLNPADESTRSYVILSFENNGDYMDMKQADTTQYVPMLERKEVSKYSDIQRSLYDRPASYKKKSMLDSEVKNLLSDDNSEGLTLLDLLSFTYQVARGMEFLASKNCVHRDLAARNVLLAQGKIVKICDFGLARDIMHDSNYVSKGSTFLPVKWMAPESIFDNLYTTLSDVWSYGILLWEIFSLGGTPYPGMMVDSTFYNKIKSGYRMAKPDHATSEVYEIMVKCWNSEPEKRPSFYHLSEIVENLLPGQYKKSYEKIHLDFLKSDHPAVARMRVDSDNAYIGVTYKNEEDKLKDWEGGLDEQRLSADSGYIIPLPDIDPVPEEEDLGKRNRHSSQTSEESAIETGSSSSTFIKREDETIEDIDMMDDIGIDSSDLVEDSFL
T12 sequence (Q15418 whole entry): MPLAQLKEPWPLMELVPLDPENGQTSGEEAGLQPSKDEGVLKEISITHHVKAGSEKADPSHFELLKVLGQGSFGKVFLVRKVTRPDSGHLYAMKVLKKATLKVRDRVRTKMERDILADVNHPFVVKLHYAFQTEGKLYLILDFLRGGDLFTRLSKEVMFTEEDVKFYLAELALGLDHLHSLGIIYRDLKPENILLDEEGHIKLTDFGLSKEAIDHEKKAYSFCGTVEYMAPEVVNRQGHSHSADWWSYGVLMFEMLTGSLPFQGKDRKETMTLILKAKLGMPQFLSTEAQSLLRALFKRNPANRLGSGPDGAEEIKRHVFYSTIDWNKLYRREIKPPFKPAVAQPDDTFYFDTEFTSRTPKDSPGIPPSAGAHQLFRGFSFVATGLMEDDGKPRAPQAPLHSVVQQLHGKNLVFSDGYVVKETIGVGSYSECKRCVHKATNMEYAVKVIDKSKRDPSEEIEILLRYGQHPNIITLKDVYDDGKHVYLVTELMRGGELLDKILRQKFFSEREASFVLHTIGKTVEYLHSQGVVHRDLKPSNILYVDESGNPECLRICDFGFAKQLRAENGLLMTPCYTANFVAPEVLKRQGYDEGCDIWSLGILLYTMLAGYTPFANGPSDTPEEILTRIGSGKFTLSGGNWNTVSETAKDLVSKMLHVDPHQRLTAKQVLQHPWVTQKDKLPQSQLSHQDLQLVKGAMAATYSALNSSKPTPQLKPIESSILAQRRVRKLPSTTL
T9 sequence (Q13153 whole entry): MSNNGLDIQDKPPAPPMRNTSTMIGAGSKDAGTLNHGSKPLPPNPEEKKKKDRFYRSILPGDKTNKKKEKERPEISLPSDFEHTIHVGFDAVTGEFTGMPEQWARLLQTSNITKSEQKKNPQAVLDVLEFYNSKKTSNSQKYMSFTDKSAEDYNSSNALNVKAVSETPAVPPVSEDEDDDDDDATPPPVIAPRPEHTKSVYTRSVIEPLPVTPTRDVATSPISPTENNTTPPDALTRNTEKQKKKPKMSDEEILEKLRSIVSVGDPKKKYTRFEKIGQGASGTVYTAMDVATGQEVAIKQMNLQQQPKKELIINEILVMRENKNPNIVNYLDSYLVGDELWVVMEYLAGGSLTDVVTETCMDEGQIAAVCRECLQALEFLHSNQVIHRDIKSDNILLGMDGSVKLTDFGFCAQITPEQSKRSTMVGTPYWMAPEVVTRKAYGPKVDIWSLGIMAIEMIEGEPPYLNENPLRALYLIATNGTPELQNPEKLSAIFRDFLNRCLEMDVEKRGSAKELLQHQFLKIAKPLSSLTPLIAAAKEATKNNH
T5 sequence (P36507 whole entry): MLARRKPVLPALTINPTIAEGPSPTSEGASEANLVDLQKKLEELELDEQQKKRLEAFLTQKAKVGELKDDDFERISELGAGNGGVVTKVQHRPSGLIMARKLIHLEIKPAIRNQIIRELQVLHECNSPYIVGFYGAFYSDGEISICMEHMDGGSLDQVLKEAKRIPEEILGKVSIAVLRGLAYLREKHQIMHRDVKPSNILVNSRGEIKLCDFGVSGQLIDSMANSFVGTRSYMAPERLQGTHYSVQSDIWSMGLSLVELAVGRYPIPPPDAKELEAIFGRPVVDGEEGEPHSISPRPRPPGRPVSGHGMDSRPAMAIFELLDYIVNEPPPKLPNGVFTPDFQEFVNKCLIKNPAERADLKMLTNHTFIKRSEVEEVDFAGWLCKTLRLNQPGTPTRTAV
T6 sequence (Q14680 whole entry): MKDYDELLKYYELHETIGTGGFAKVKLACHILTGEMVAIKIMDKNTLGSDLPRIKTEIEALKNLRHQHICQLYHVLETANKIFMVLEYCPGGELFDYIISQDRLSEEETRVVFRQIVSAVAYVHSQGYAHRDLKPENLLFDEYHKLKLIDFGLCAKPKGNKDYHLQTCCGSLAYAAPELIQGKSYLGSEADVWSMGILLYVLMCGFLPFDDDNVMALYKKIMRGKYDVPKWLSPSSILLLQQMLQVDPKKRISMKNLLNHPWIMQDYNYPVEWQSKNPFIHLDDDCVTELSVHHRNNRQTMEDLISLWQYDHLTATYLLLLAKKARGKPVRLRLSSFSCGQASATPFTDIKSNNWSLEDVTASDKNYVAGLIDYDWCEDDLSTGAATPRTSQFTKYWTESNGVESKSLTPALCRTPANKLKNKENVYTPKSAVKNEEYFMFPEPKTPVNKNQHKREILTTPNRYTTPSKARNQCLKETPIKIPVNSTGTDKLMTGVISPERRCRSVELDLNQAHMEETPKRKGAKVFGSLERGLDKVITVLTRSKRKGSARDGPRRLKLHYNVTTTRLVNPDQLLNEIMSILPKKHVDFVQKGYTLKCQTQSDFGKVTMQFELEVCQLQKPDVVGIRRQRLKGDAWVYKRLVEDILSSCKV
T4 sequence (P49841 whole entry): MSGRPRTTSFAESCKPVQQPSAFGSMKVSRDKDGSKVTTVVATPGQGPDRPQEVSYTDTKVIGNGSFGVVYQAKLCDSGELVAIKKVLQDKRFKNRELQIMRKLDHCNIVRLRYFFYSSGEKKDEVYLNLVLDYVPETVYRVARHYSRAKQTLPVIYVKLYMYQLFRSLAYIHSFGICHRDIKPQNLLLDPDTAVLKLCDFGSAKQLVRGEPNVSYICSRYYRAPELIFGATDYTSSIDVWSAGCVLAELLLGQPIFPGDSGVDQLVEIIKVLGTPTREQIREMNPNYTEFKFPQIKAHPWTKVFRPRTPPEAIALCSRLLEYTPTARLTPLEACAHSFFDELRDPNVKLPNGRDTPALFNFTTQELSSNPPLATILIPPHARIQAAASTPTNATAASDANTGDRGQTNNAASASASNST
T1 sequence (Q13882 whole entry): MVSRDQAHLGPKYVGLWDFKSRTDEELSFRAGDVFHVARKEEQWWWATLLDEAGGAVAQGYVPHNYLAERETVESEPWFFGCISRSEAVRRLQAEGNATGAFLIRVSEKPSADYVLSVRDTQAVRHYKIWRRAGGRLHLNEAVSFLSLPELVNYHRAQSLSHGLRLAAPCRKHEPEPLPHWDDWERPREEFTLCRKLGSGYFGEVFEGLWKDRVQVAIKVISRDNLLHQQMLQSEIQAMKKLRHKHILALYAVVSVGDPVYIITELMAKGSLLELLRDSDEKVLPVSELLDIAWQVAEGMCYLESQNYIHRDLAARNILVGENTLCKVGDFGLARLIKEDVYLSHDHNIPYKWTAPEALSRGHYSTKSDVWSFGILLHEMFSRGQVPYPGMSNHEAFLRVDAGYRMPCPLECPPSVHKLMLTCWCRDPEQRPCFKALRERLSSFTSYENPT

Structure (SMILES)	Residual activity (BRK; 1.0E-05 M)	Residual activity (BRK; 1.0E-06 M)	Residual activity (BRSK2; 1.0E-05 M)	Residual activity (BRSK2; 1.0E-06 M)	Residual activity (CDK4/CycD2; 1.0E-05 M)	Residual activity (CDK4/CycD2; 1.0E-06 M)	Residual activity (GSK3beta; 1.0E-05 M)	Residual activity (GSK3beta; 1.0E-06 M)	Residual activity (MEK2; 1.0E-05 M)	Residual activity (MEK2; 1.0E-06 M)	Residual activity (MELK; 1.0E-05 M)	Residual activity (MELK; 1.0E-06 M)	Residual activity (MKK6 SDTD; 1.0E-05 M)	Residual activity (MKK6 SDTD; 1.0E-06 M)	Residual activity (MKK7; 1.0E-05 M)	Residual activity (MKK7; 1.0E-06 M)	Residual activity (PAK1; 1.0E-05 M)	Residual activity (PAK1; 1.0E-06 M)	Residual activity (PDGFRalpha; 1.0E-05 M)	Residual activity (PDGFRalpha; 1.0E-06 M)	other results
O=C(Cc1ccccc1)Nc1ccc(F)c(Nc2ccc3c(c2)CCCCC3=O)c1 [Compound 100]	106 % of control	105 % of control	99 % of control	113 % of control	86 % of control	94 % of control	88 % of control	88 % of control	88 % of control	102 % of control	90 % of control	93 % of control	109 % of control	89 % of control	110 % of control	101 % of control	88 % of control	87 % of control	95 % of control	107 % of control	Residual activity (PKCzeta; 1.0E-05 M): 102 % of control; Residual activity (PKCzeta; 1.0E-06 M): 92 % of control; Residual activity (RPS6KA1; 1.0E-05 M): 96 % of control; Residual activity (RPS6KA1; 1.0E-06 M): 110 % of control
O=C(Nc1ccc(F)c(Nc2ccc3c(c2)CCCCC3=O)c1)c1cccc(F)c1 [Compound 109]	84 % of control	105 % of control	100 % of control	109 % of control	91 % of control	94 % of control	90 % of control	82 % of control	89 % of control	100 % of control	90 % of control	107 % of control	137 % of control	85 % of control	90 % of control	84 % of control	80 % of control	84 % of control	92 % of control	96 % of control	Residual activity (PKCzeta; 1.0E-05 M): 96 % of control; Residual activity (PKCzeta; 1.0E-06 M): 87 % of control; Residual activity (RPS6KA1; 1.0E-05 M): 95 % of control; Residual activity (RPS6KA1; 1.0E-06 M): 96 % of control
